Measurements taken from patent US20140343049A1, “DIHYDROFURAN DERIVATIVES AS INSECTICIDAL COMPOUNDS” (SYNGENTA PARTICIPATIONS AG, priority 2011, published 2014).

Experiments:
Assay type in all cases: in vivo
[1] = test system: Thrips tabaci (onion thrips); assay: Thrips tabaci sunflower leaf disc spray test; conditions: foliar, 168 h, sunflower leaf discs sprayed at 200 ppm, mixed ages, mortality after 7 days
Description: Sunflower leaf discs were placed on agar in a 24-well microtiter plate and sprayed with test solutions at an application rate of 200 ppm. […] After drying, the leaf discs were infested with a thrip population of mixed ages. After an incubation period of 7 days, samples were checked for mortality.

[2] = test system: Heliothis virescens (tobacco budworm); assay: Heliothis virescens egg test on artificial diet; conditions: 96 h, 200 ppm (concentration in well 18 ppm), eggs 0-24 h old, 4 days, egg mortality, larval mortality, growth regulation
Description: Eggs (0-24 h old) were placed in 24-well microtiter plate on artificial diet and treated with test solutions at an application rate of 200 ppm (concentration in well 18 ppm) by pipetting. After an incubation period of 4 days, samples were checked for egg mortality, larval mortality, and growth regulation.

[3] = test system: Tetranychus urticae (two-spotted spider mite); assay: Tetranychus urticae bean leaf disc spray test; conditions: foliar, 192 h, bean leaf discs sprayed at 200 ppm, mixed ages, egg, larval and adult mortality 8 days later
Description: Bean leaf discs on agar in 24-well microtiter plates were sprayed with test solutions at an application rate of 200 ppm. After drying, the leaf discs are infested with mite populations of mixed ages. 8 days later, discs are checked for egg mortality, larval mortality, and adult mortality. […]

[4] = test system: Spodoptera littoralis (Egyptian cotton leafworm); assay: Spodoptera littoralis cotton leaf disc spray test; conditions: foliar, 72 h, cotton leaf discs sprayed at 200 ppm, 5 L1 larvae, mortality, feeding behavior, growth regulation 3 days after treatment
Description: Cotton leaf discs were placed on agar in a 24-well microtiter plate and sprayed with test solutions at an application rate of 200 ppm. After drying, the leaf discs were infested with 5 L1 larvae. The samples were checked for mortality, feeding behavior, and growth regulation 3 days after treatment (DAT).

[5] = test system: Myzus persicae (green peach aphid); assay: Myzus persicae (sachet) mixed population test; conditions: 120 h, sucrose solution, application rate 12.5 ppm, mortality 5 days after infestation
Description: Test compounds were applied by pipette into 24 well plates and mixed with Sucrose solution. The plates were closed with a stretched Parafilm. A plastic stencil with 24 holes is placed onto the plate and infested pea seedlings were placed directly on the Parafilm. The infested plate is closed with a gel blotting paper and another plastic stencil and then turned upside down. 5 days after infestation the samples were checked on mortality. Application rate: 12.5 ppm.

[6] = test system: Plutella xylostella (diamond back moth); assay: Plutella xylostella L2 larvae test on artificial diet; conditions: 144 h, 200 ppm (concentration in well 18 ppm), 6 days, larval mortality and growth regulation
Description: 24-well microtiter plate (MTP) with artificial diet was treated with test solutions at an application rate of 200 ppm (concentration in well 18 ppm) by pipetting. After drying, the MTPs were infested with L2 larvae (7-12 per well). After an incubation period of 6 days, samples were checked for larval mortality and growth regulation.

[7] = test system: Diabrotica balteata (corn root worm); assay: Diabrotica balteata L2 larvae test on artificial diet; conditions: 120 h, 200 ppm (concentration in well 18 ppm), 5 days, larval mortality and growth regulation
Summary of the method: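 Artificial diet treated with test solution at 200 ppm or 12.5 ppm application rate (in-well concentration stated as 18 ppm), dried, then infested with 6-10 L2 larvae per well. Larval mortality and growth regulation scored after 5 days.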

Cc1cc(C2=CC(c3cc(Cl)cc(Cl)c3)(C(F)(F)F)OC2)ccc1C(=O)NC1CSC1 (stereo not shown) [Compound A2]
≥ 80%: pest or weed control at 200 ppm [1] | pest or weed control at 200 ppm [2] | pest or weed control at 200 ppm [3] | pest or weed control at 200 ppm [4] | pest or weed control at 12.5 ppm [5]

Cc1cc(C2=CC(c3cc(Cl)cc(Cl)c3)(C(F)(F)F)OC2)ccc1C(=O)NCc1ccc(S(C)(=O)=O)cc1 (stereo not shown) [Compound A25]
≥ 80%: pest or weed control at 200 ppm [6] | pest or weed control at 200 ppm [2] | pest or weed control at 200 ppm [7] | pest or weed control at 200 ppm [3] | pest or weed control at 200 ppm [4] | pest or weed control at 12.5 ppm [5]

Cc1cc(C2=CC(c3cc(Cl)cc(Cl)c3)(C(F)(F)F)OC2)ccc1C(=O)NC1C[S+]([O-])C1 (stereo not shown) [Compound A77]
≥ 80%: pest or weed control at 200 ppm [1] | pest or weed control at 12.5 ppm [5]

Cc1cc(C2=CC(c3cc(Cl)cc(Cl)c3)(C(F)(F)F)OC2)ccc1C(=O)NCC1CSC1 (stereo not shown) [Compound A78]
≥ 80%: pest or weed control at 200 ppm [6] | pest or weed control at 200 ppm [1] | pest or weed control at 200 ppm [2] | pest or weed control at 200 ppm [7] | pest or weed control at 200 ppm [3] | pest or weed control at 200 ppm [4] | pest or weed control at 12.5 ppm [5]

Cc1cc(C2=CC(c3cc(Cl)cc(Cl)c3)(C(F)(F)F)OC2)ccc1C(=O)NCCC1CSC1 (stereo not shown) [Compound A82]
≥ 80%: pest or weed control at 200 ppm [6] | pest or weed control at 200 ppm [1] | pest or weed control at 200 ppm [2] | pest or weed control at 200 ppm [7] | pest or weed control at 200 ppm [3] | pest or weed control at 200 ppm [4] | pest or weed control at 12.5 ppm [5]

Cc1cc(C2=CC(c3cc(Cl)cc(Cl)c3)(C(F)(F)F)OC2)ccc1C(=O)NCCC1CS(=O)(=O)C1 (stereo not shown) [Compound A83]
≥ 80%: pest or weed control at 200 ppm [6] | pest or weed control at 200 ppm [2] | pest or weed control at 200 ppm [7] | pest or weed control at 200 ppm [3] | pest or weed control at 200 ppm [4] | pest or weed control at 12.5 ppm [5]

Cc1nc(C2=CC(c3cc(Cl)cc(Cl)c3)(C(F)(F)F)OC2)ccc1C(=O)NC1C[S+]([O-])C1 (stereo not shown) [Compound C22]
≥ 80%: pest or weed control at 200 ppm [6] | pest or weed control at 200 ppm [1] | pest or weed control at 200 ppm [2] | pest or weed control at 200 ppm [7] | pest or weed control at 200 ppm [3] | pest or weed control at 200 ppm [4] | pest or weed control at 12.5 ppm [5]

CCCCNC(=O)c1ccc(C2=CC(c3cc(Cl)cc(Cl)c3)(C(F)(F)F)OC2)cc1C (stereo not shown) [Compound D3]
≥ 80%: pest or weed control at 200 ppm [1] | pest or weed control at 200 ppm [3] | pest or weed control at 12.5 ppm [5]

COCC(C)NC(=O)c1ccc(C2=CC(c3cc(Cl)cc(Cl)c3)(C(F)(F)F)OC2)cc1C (stereo not shown) [Compound D4]
≥ 80%: pest or weed control at 200 ppm [1] | pest or weed control at 200 ppm [3] | pest or weed control at 12.5 ppm [5]

Cc1cc(C2=CC(c3cc(Cl)cc(Cl)c3)(C(F)(F)F)OC2)ccc1C(=O)NCc1ccccc1 (stereo not shown) [Compound D9]
≥ 80%: pest or weed control at 200 ppm [6] | pest or weed control at 200 ppm [1] | pest or weed control at 200 ppm [2] | pest or weed control at 200 ppm [3] | pest or weed control at 200 ppm [4] | pest or weed control at 12.5 ppm [5]

Cc1cc(C2=CC(c3cc(Cl)cc(Cl)c3)(C(F)(F)F)OC2)ccc1C(=O)NCc1ccccc1F (stereo not shown) [Compound D10]
≥ 80%: pest or weed control at 200 ppm [6] | pest or weed control at 200 ppm [1] | pest or weed control at 200 ppm [2] | pest or weed control at 200 ppm [7] | pest or weed control at 200 ppm [3] | pest or weed control at 200 ppm [4] | pest or weed control at 12.5 ppm [5]

Cc1cc(C2=CC(c3cc(Cl)cc(Cl)c3)(C(F)(F)F)OC2)ccc1C(=O)NC(C)c1ccccc1 (stereo not shown) [Compound D11]
≥ 80%: pest or weed control at 200 ppm [1] | pest or weed control at 200 ppm [7] | pest or weed control at 12.5 ppm [5]

COc1ccc(CNC(=O)c2ccc(C3=CC(c4cc(Cl)cc(Cl)c4)(C(F)(F)F)OC3)cc2C)cc1 (stereo not shown) [Compound D12]
≥ 80%: pest or weed control at 200 ppm [1] | pest or weed control at 200 ppm [7] | pest or weed control at 12.5 ppm [5]

Cc1cc(C2=CC(c3cc(Cl)cc(Cl)c3)(C(F)(F)F)OC2)ccc1C(=O)NCc1ccc(Cl)nc1 (stereo not shown) [Compound D13]
≥ 80%: pest or weed control at 200 ppm [7] | pest or weed control at 12.5 ppm [5]

Cc1cc(C2=CC(c3cc(Cl)cc(Cl)c3)(C(F)(F)F)OC2)ccc1C(=O)Nc1cccc(F)c1 (stereo not shown) [Compound D14]
≥ 80%: pest or weed control at 200 ppm [7] | pest or weed control at 200 ppm [3] | pest or weed control at 12.5 ppm [5]

Cc1cc(NC(=O)c2ccc(C3=CC(c4cc(Cl)cc(Cl)c4)(C(F)(F)F)OC3)cc2C)n(C)n1 (stereo not shown) [Compound D16]
≥ 80%: pest or weed control at 200 ppm [1] | pest or weed control at 200 ppm [7] | pest or weed control at 12.5 ppm [5]

Cc1csc(NC(=O)c2ccc(C3=CC(c4cc(Cl)cc(Cl)c4)(C(F)(F)F)OC3)cc2C)n1 (stereo not shown) [Compound D17]
≥ 80%: pest or weed control at 200 ppm [7] | pest or weed control at 12.5 ppm [5]

Cc1cc(C2=CC(c3cc(Cl)cc(Cl)c3)(C(F)(F)F)OC2)ccc1C(=O)NC1(C)CSC1 (stereo not shown) [Compound D18]
≥ 80%: pest or weed control at 200 ppm [1] | pest or weed control at 200 ppm [7] | pest or weed control at 12.5 ppm [5]

CSCC(C)(C)NC(=O)c1ccc(C2=CC(c3cc(Cl)cc(Cl)c3)(C(F)(F)F)OC2)cc1C (stereo not shown) [Compound D19]
≥ 80%: pest or weed control at 200 ppm [6] | pest or weed control at 200 ppm [2] | pest or weed control at 200 ppm [7] | pest or weed control at 200 ppm [3] | pest or weed control at 200 ppm [4] | pest or weed control at 12.5 ppm [5]

Cc1cc(C2=CC(c3cc(Cl)cc(Cl)c3)(C(F)(F)F)OC2)ccc1C(=O)NC1CCC1 (stereo not shown) [Compound D23]
≥ 80%: pest or weed control at 200 ppm [6] | pest or weed control at 200 ppm [1] | pest or weed control at 200 ppm [7] | pest or weed control at 12.5 ppm [5]

Cc1cc(C2=COC(c3cc(Cl)cc(Cl)c3)(C(F)(F)F)C2)ccc1C(=O)N[C@@H]1CON(CC(F)(F)F)C1=O (stereo partly drawn) [Compound D25, 4-[2-(3,5-dichlorophenyl)-2-(trifluoromethyl)-3H-furan-4-yl]-2-methyl-N-[(4R)-3-oxo-2-(2,2,2-trifluoroethyl)isoxazolidin-4-yl]benzamide]
≥ 80%: pest or weed control at 200 ppm [6] | pest or weed control at 200 ppm [1] | pest or weed control at 200 ppm [2] | pest or weed control at 200 ppm [7] | pest or weed control at 200 ppm [3] | pest or weed control at 200 ppm [4] | pest or weed control at 12.5 ppm [5]

N#Cc1cc(C2=CO[C@@](c3cc(Cl)cc(Cl)c3)(C(F)(F)F)C2)ccc1-n1cncn1 [H1*, 5-[(2S)-2-(3,5-dichlorophenyl)-2-(trifluoromethyl)-3H-furan-4-yl]-2-(1,2,4-triazol-1-yl)benzonitrile]
≥ 80%: pest or weed control at 200 ppm [6] | pest or weed control at 200 ppm [1] | pest or weed control at 200 ppm [2] | pest or weed control at 200 ppm [7] | pest or weed control at 12.5 ppm [5]
